Assay results: the supplement of paper PMC4862054

Experiments:
Conditions in all cases: incubation time: 72 h
CAL-148 [1] = assay: drug sensitivity score (DSS), CellTox Green (DSS (AUC-based score)); higher = stronger drug effect (viability inhibition or cytotoxicity); extreme values may be limits of the assay
In short: (§1)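 The drug sensitivity score was computed from the area under the fitted dose-response curve. Breast cancer cell lines in 20 µl suspension went into 384-well plates holding compound at 5 concentrations (10-fold steps over a 10,000-fold, compound-specific range) for 72 h of incubation. CellTox Green fluorescence (485/520 nm) was read before CellTiter-Glo luminescence, the latter after 10 min at room temperature, and each plate was normalised to 0.1 % DMSO and a positive kill control.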

CAL-85-1 [2] = assay: as above
In short: as §1

BT-474 [3] = assay: as above
In short: as §1

HCC1937 [4] = assay: as above
In short: as §1

HCC1143 [5] = assay: as above
In short: as §1

MDA-MB-231 [6] = assay: as above
In short: as §1

MDA-MB-453 [7] = assay: normalised viability (% of control), CellTiter-Blue; higher = more viable cells (about 100 = DMSO control)
In short: (§2)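 384-well plates were pre-loaded with compound in 5 µl medium before 20 µl of breast cancer cell suspension was seeded. Following 72 h incubation, 2.5 µl CellTiter-Blue reagent was added for 2 h at 37 °C. Fluorescence was read at 560/590 nm and plates were normalised to vehicle (100) and a positive kill control (0), checked by Z'-factor. Normalised viability is reported at a single listed concentration of the series.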

MDA-MB-436 [8] = assay: as above
In short: as §2

DU-4475 [9] = assay: as above
In short: as §2

BT-549 [10] = assay: as above
In short: as §2

HCC1599 = assay: normalised viability (% of control), CellTiter-Blue; higher = more viable cells (about 100 = DMSO control)
Description: (§3)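 DSRT, CellTiter-Blue viability, 72 h incubation. Signal is normalised to DMSO and benzethonium chloride controls. Value is the normalised response at dose 3.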

MDA-MB-453 [11] = assay: as above; remark: listed apart in the source
Description: as §3

MDA-MB-436 [12] = assay: as above; remark: listed apart in the source
Description: as §3

SK-BR-3 = assay: as above
Description: as §3

CAL-148 [13] = assay: as above
Description: as §3

MDA-MB-468 = assay: as above
Description: as §3

CAL-85-1 [14] = assay: as above
Description: as §3

BT-474 [15] = assay: as above
Description: as §3

MFM-223 = assay: as above
Description: as §3

HCC1937 [16] = assay: as above
Description: as §3

CAL-120 = assay: as above
Description: as §3

DU-4475 [17] = assay: as above; remark: listed apart in the source
Description: as §3

CAL-51 = assay: as above
Description: as §3

BT-549 [18] = assay: as above; remark: listed apart in the source
Description: as §3

Hs578T = assay: as above
Description: as §3

HCC1143 [19] = assay: as above
Description: as §3

MDA-MB-231 [20] = assay: as above
Description: as §3

HDQ-P1 = assay: as above
Description: as §3

CC(C)Cn1cnc2c(N)nc3ccccc3c21 [Imiquimod]
Conditions | drug sensitivity score
BT-474 [3] | 0
CAL-85-1 [2] | 1.01
CAL-148 [1] | 0
HCC1143 [5] | 0
HCC1937 [4] | 0
MDA-MB-231 [6] | 0

Conditions | normalised viability [%]
BT-474 [15], 100 nM | 101
BT-549 [10], 10 nM | 94.5
BT-549 [10], 1000 nM | 103
BT-549 [10], 10000 nM | 78.7
BT-549 [18], 100 nM | 96.1
CAL-51, 10 nM | 102
CAL-85-1 [14], 10 nM | 95.2
CAL-120, 100 nM | 98.5
CAL-148 [13], 10 nM | 105
DU-4475 [9], 3 nM | 97
DU-4475 [9], 30 nM | 101
DU-4475 [9], 100 nM | 99
DU-4475 [17], 10 nM | 93.5
HCC1143 [19], 100 nM | 120
HCC1599, 100 nM | 103
HCC1937 [16], 100 nM | 87.1
HDQ-P1, 10 nM | 99.5
Hs578T, 100 nM | 98.1
MDA-MB-231 [20], 100 nM | 87.4
MDA-MB-436 [8], 10 nM | 94.2
MDA-MB-436 [8], 1000 nM | 92.3
MDA-MB-436 [8], 10000 nM | 96.6
MDA-MB-436 [12], 100 nM | 85.6
MDA-MB-453 [7], 3 nM | 94.6
MDA-MB-453 [7], 30 nM | 105
MDA-MB-453 [7], 100 nM | 107
MDA-MB-453 [11], 10 nM | 112
MDA-MB-468, 100 nM | 106
MFM-223, 100 nM | 91.2
SK-BR-3, 100 nM | 112

CC(=O)Nc1ccc(C(=O)Nc2ccccc2N)cc1 [CI-994]
Conditions | normalised viability [%]
BT-474 [15], 10 nM | 106
BT-549 [10], 1 nM | 116
BT-549 [10], 100 nM | 97
BT-549 [10], 1000 nM | 112
BT-549 [18], 10 nM | 96.9
CAL-51, 1 nM | 94
CAL-85-1 [14], 1 nM | 91.7
CAL-120, 10 nM | 114
CAL-148 [13], 1 nM | 98.1
DU-4475 [9], 0.3 nM | 86
DU-4475 [9], 3 nM | 81
DU-4475 [9], 10 nM | 107
DU-4475 [17], 1 nM | 93.9
HCC1143 [19], 10 nM | 111
HCC1599, 10 nM | 108
HCC1937 [16], 10 nM | 108
HDQ-P1, 1 nM | 113
Hs578T, 10 nM | 97.8
MDA-MB-231 [20], 10 nM | 103
MDA-MB-436 [8], 1 nM | 98.7
MDA-MB-436 [8], 100 nM | 97.2
MDA-MB-436 [8], 1000 nM | 94.8
MDA-MB-436 [12], 10 nM | 94.2
MDA-MB-453 [7], 0.3 nM | 100
MDA-MB-453 [7], 3 nM | 100
MDA-MB-453 [7], 10 nM | 105
MDA-MB-453 [11], 1 nM | 113
MDA-MB-468, 10 nM | 108
MFM-223, 10 nM | 97.5
SK-BR-3, 10 nM | 78.2

Cc1ccc(C(=O)Nc2ccc(CN3CCN(C)CC3)c(C(F)(F)F)c2)cc1C#Cc1cnc2cccnn12 [Ponatinib]
Conditions | normalised viability [%]
BT-474 [15], 10 nM | 103
BT-549 [10], 1 nM | 107
BT-549 [10], 100 nM | 120
BT-549 [10], 1000 nM | 49.3
BT-549 [18], 10 nM | 107
CAL-51, 1 nM | 96.6
CAL-85-1 [14], 1 nM | 95.9
CAL-120, 10 nM | 105
CAL-148 [13], 1 nM | 103
DU-4475 [9], 0.3 nM | 91.6
DU-4475 [9], 3 nM | 91.7
DU-4475 [9], 10 nM | 84.5
DU-4475 [17], 1 nM | 105
HCC1143 [19], 10 nM | 100
HCC1599, 10 nM | 114
HCC1937 [16], 10 nM | 91.6
HDQ-P1, 1 nM | 117
Hs578T, 10 nM | 99.6
MDA-MB-231 [20], 10 nM | 101
MDA-MB-436 [8], 1 nM | 106
MDA-MB-436 [8], 100 nM | 91.5
MDA-MB-436 [8], 1000 nM | 90.5
MDA-MB-436 [12], 10 nM | 101
MDA-MB-453 [7], 0.3 nM | 102
MDA-MB-453 [7], 3 nM | 101
MDA-MB-453 [7], 10 nM | 87.3
MDA-MB-453 [11], 1 nM | 110
MDA-MB-468, 10 nM | 110
MFM-223, 10 nM | 65.5
SK-BR-3, 10 nM | 78
